Measurements reported in patent EP3722295A1, “ANTI-VIRAL AND ANTI-CANCER ACTIVITY OF PYRIDO[2,3-D]PYRIMIDINE AND OXADIAZIOLE COMPOUNDS” (priority 2019, dated 2020).
Where two headings read alike, the source gives them in different places.

Key:
[1] = test system: WSN-PB2-Nanoluc virus; assay type: cell-based, influenza A/WSN/33
[2] = test system: RSV-Firefly virus; assay: RSV-Firefly replication assay (specificity control); assay type: cell-based, human Respiratory Syncytial Virus
[3] = physchem
[4] = molecular target: RED-SMU1 complex (Homo sapiens, UniProt Q2TAY7); assay: In cellulo split luciferase-based RED-SMU1 interaction assay; assay type: cell-based; conditions: for inhibition at 60 µM: A549 cells, relative to DMSO
[5] = test system: A549 cells; assay: Cell viability assay (CellTiter-Glo, ATP levels) and observation of cell monolayers; assay type: cell-based, human
Experimental: Cell viability was assessed using the CellTiter-Glo® One Solution Assay kit (Promega) according to the manufacturer's instruction.

[6] = test system: PB2 mRNA; assay: PB2 mRNA splicing, semi-quantitative RT-PCR; assay type: cell-based, influenza A/WSN/33; conditions: WSN-infected A549 cells, 60 µM
Experimental: (§1) Total RNA and poly(A)+ RNAs were extracted subsequently using the RNeasy Mini Kit (Qiagen) and Oligotex mRNA Mini kit (Qiagen), following the manufacturer's protocol. Reverse transcription (RT) was performed on 5-10 ng of total mRNA (or poly(A)+ RNA equivalent) using the Maxima First Strand cDNA Synthesis Kit (Thermo Scientific). Quantitative real-time PCR was performed on 2 µl of a 1/10 dilution of the RT reaction using the Luminaris Color Probe qPCR Master Mix (Thermo Scientific) and a Light Cycler 480 (Roche). The levels of NS1/NS2 and M1/M2 mRNAs were determined and normalized with respect to GAPDH mRNA levels using the protocol described in (23). The levels of PB2/PB2-S1 mRNAs were determined by semi-quantitative RT-PCR as described in (35).

[7] = test system: viral M1 mRNAs; assay: M1 mRNA splicing, RT-qPCR; assay type: cell-based, influenza A/WSN/33; conditions: WSN-infected A549 cells, 60 µM
Experimental: as §1

[8] = molecular target: T1, FOS:JUN (Homo sapiens, UniProt P01100+P05412); assay: FOS:JUN split luciferase interaction assay (specificity control); assay type: cell-based
T1 construct: expressed in transfected cells

[9] = molecular target: T2, endogenous RED-SMU1 complex (Homo sapiens, UniProt Q2TAY7); assay: Western blot of steady-state levels of endogenous RED and SMU1 proteins; assay type: cell-based
T2 construct: Effect on the steady-state levels of the endogenous RED and SMU1 proteins; endogenous in cells; host or cells: A549

[10] = test system: viral NS1 mRNA; assay: NS1 mRNA splicing, quantitative real-time PCR; assay type: cell-based, influenza A/WSN/33; conditions: WSN-infected A549 cells, 60 µM, 6 h incubation
Experimental: as §1

[11] = test system: WSN virus; assay: Production of infectious particles in A549 cells, plaque assay; assay type: cell-based, influenza A/WSN/33; conditions: 60 µM

T1 sequence (P01100 whole entry): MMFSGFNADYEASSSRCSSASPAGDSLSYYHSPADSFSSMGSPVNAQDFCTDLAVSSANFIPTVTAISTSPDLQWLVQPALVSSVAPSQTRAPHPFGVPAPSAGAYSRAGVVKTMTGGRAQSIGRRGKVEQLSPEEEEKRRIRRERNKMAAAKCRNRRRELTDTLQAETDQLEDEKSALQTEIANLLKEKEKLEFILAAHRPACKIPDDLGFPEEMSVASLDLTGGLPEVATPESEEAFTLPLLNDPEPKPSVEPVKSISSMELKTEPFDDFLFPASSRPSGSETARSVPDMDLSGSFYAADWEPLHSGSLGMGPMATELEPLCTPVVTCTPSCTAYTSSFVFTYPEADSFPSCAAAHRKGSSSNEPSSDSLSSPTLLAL
T1 sequence (P05412 whole entry): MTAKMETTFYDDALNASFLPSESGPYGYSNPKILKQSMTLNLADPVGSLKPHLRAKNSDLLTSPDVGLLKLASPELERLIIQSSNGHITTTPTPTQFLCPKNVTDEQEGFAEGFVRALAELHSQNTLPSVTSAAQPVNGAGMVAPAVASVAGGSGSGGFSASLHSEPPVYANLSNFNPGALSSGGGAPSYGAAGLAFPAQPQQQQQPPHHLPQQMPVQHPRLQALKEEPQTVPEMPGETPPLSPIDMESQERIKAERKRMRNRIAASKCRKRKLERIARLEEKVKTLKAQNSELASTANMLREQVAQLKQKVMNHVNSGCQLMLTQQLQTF

SMILES	reduction of WSN-Nanoluc signals [1] [fold]	RSV-Firefly signals [2]	logP [3]	EC50 [4] [µM]	inhibition at 60 µM [4] [%]	growth of the tumoral cell line A549 [5]	cytotoxicity / cytostatic effect ([5]; A549 cells, 15, 30 and 60 µM, 24 and 48 hours of incubation)	PB2 mRNA splicing [6]	splicing of the viral M1 mRNAs [7]	effect in FOS:JUN interaction assay [8]	Expression levels of RED and SMU1 proteins [9]	reduction of NS2 to NS1 mRNA ratio [10] [%]	reduction of production of WSN infectious particles ([11]; 24 hpi)	reduction of production of WSN infectious particles ([11]; 48 hpi) [fold]	reduction of production of WSN infectious particles ([11]; 72 hpi) [fold]	RSV-Firefly signals ([2]; A549 cells, 7.5 - 60 µM, 24 hpi)	effect in FOS:JUN interaction assay ([8]; specificity control, same concentrations as RED-SMU1 assay)	inhibition of viral growth [1]
C#CCCCNc1ncc2cc(-c3cc(OC)cc(OC)c3)c(NC(=O)NC(C)(C)C)nc2n1 [LSP61]	25	only moderate reductions	4.8	~15	90	inhibits the growth	no cytotoxicity but some cytostatic effect	not affected	did not inhibit	none of the two compounds showed any significant effect	decreased	50	about 1000 fold	~100	~10			
COc1cc(OC)cc(-c2cc3cnc(NCc4cn(C5CCN(Cc6ccccc6)CC5)nn4)nc3nc2NC(=O)NC(C)(C)C)c1 [LSP641]					40			not affected	did not inhibit			30				only moderate reductions	none of the two compounds showed any significant effect	
CCN(CC)CCCCNc1ncc2cc(-c3cc(OC)cc(OC)c3)c(NC(=O)NC(C)(C)C)nc2n1 [PD173074, reference compound]																		did not inhibit viral growth as efficiently as LSP61
